System: Wnt pathway (TCF-dependent transcription in HEK293 luciferase reporter cell line with ER-DSH construct)
Assay: Cellular assay for Wnt pathway activity (luciferase reporter)
Format: cell-based
Conditions: Homo sapiens; Wnt pathway inhibition, HEK293 luciferase reporter cells (ER-DSH, TCF promoter), 24 hours incubation, estrogen-induced
Protocol: 1. Cellular Assay for Wnt Pathway Activity
Compounds were tested for their Wnt pathway inhibitory activities using a luciferase reporter cell based assay. A HEK293 luciferase reporter cell line was used which contained an Estrogen Receptor-Dishevelled (ER-DSH) construct and a T-Cell Factor (TCF) dependent gene promoter luciferase construct.
Compounds, in concentrations from 30 μM down to 1 nM, were incubated for 24 hours on the cells, which were induced for TCF-dependent transcription by the addition of estrogen (10). Luciferase activities were determined using the ONE GLO Luciferase Assay System (Promega) and the ENVISION microplate reader (Perkin Elmer). For analysis, the obtained data were normalized against the untreated vehicle control and fitted for determination of the IC50 values using the Assay Explorer software (Accelrys).

| SMILES | IC50 |
| --- | --- |
| CC(=O)N(C)CCN(C)c1cncc(Oc2ccc3[nH]c(=O)oc3c2)n1 [Compound 154, N-Methyl-N-(2-{methyl-[6-(2-oxo-2,3-dihydro-benzooxazol-6-yloxy)-pyrazin-2-yl]-amino}-ethyl)-acetamide] | 1000 to 10000 nM |
| CC(=O)N(C)CCN(C)c1cncc(Oc2ccc(-c3ncccc3N3CCOCC3)cc2)n1 [Compound 164, N-Methyl-N-[2-(methyl-{6-[4-(3-morpholin-4-yl-pyridin-2-yl)-phenoxy]-pyrazin-2-yl}-amino)-ethyl]-acetamide] | 1000 to 10000 nM |
| CCc1ccc(Oc2cncc(N(C)CCN(C)C(C)=O)n2)cc1 [Compound 97, N-(2-{[6-(4-Ethyl-phenoxy)-pyrazin-2-yl]-methyl-amino}-ethyl)-N-methyl-acetamide] | < 200 nM |
| CCN(CCN(C)c1cncc(Oc2ccc(F)cc2)n1)C(C)=O [Compound 90, N-Ethyl-N-(2-{[6-(4-fluoro-phenoxy)-pyrazin-2-yl]-methyl-amino}-ethyl)-acetamide] | < 200 nM |
| CC(=O)N(C)CCN(C)c1cncc(Oc2ccc(F)cc2)c1 [Compound 310, N-(2-{[5-(4-Fluoro-phenoxy)-pyridin-3-yl]-methyl-amino}-ethyl)-N-methyl-acetamide] | 1000 to 10000 nM |
| Cc1ccc(-c2ccc(Oc3cncc(N(C)CCN4CCCCC4=O)n3)cc2)nc1 [Compound 193, 1-[2-(Methyl-{6-[4-(5-methyl-pyridin-2-yl)-phenoxy]-pyrazin-2-yl}-amino)-ethyl]-piperidin-2-one] | < 200 nM |
| CC(=O)N(C)CCCc1cncc(Oc2ccc(-c3ccncc3C#N)cc2)c1 [Compound 321, N-(3-{5-[4-(3-Cyano-pyridin-4-yl)-phenoxy]-pyridin-3-yl}-propyl)-N-methyl-acetamide] | < 200 nM |
| CC(=O)N(C)CCN(C)c1cncc(Oc2ccc(S(C)(=O)=O)cc2)n1 [Compound 100, N-(2-{[6-(4-Methane-sulfonyl-phenoxy)-pyrazin-2-yl]-methyl-amino}-ethyl)-N-methyl-acetamide] | 200 to 1000 nM |
| CC(N)C(=O)N(C)CCN(C)c1cncc(Oc2ccc(F)cc2)n1 (stereo not shown) [Compound 308, 2-Amino-N-(2-{[6-(4-fluoro-phenoxy)-pyrazin-2-yl]-methyl-amino}-ethyl)-N-methyl-propionamide] | 1000 to 10000 nM |
| CC(=O)N(C)CCSc1cncc(Oc2ccc(-c3ccc(C)cn3)cc2)n1 [Compound 153, N-Methyl-N-(2-{6-[4-(5-methyl-pyridin-2-yl)-phenoxy]-pyrazin-2-ylsulfanyl}-ethyl)-acetamide] | < 200 nM |
| CC(=O)N(C)CCN(C)c1cncc(Oc2ccc(-c3noc(C)n3)cc2)n1 [Compound 146, N-Methyl-N-[2-(methyl-{6-[4-(5-methyl-[1,2,4]oxadiazol-3-yl)-phenoxy]-pyrazin-2-yl}-amino)-ethyl]-acetamide] | 200 to 1000 nM |
| CC(=O)N(C)CCNc1cncc(Cc2ccc(F)cc2)n1 [Compound 322, N-{2-[6-(4-Fluoro-benzyl)-pyrazin-2-ylamino]-ethyl}-N-methyl-acetamide] | 1000 to 10000 nM |
| O=C1CCCCN1CCNc1cncc(Oc2ccc(N3CCOCC3)cc2)n1 [Compound 307, 1-{2-[6-(4-Morpholin-4-yl-phenoxy)-pyrazin-2-ylamino]-ethyl}-piperidin-2-one] | 200 to 1000 nM |
| CC(=O)N(C)CCN(C)c1cncc(Oc2ccc3c(c2)CCC3)n1 [Compound 92, N-(2-{[6-(Indan-5-yloxy)-pyrazin-2-yl]-methyl-amino}-ethyl)-N-methyl-acetamide] | < 200 nM |
| CC(=O)Nc1cccc(-c2ccc(Oc3cncc(NCCN(C)C(C)=O)n3)c(F)c2)n1 [Compound 259, N-(2-{6-[4-(6-Acetylamino-pyridin-2-yl)-2-fluoro-phenoxy]-pyrazin-2-ylamino}-ethyl)-N-methyl-acetamide] | 1000 to 10000 nM |
| CC(=O)N(C)CCN(C)c1cncc(Oc2ccc(-c3cc(N4CCN(C)CC4)ccn3)cc2)n1 [Compound 173, N-Methyl-N-{2-[methyl-(6-{4-[4-(4-methyl-piperazin-1-yl)-pyridin-2-yl]-phenoxy}-pyrazin-2-yl)-amino]-ethyl}-acetamide] | 1000 to 10000 nM |
| CC(=O)N(C)CCN(C)c1cncc(Oc2ccc(-c3c(F)c(F)nc(F)c3F)cc2)n1 [Compound 236, N-Methyl-N-[2-(methyl-{6-[4-(2,3,5,6-tetrafluoro-pyridin-4-yl)-phenoxy]-pyrazin-2-yl}-amino)-ethyl]-acetamide] | < 200 nM |
| CC(=O)N(C)CCN(C)c1cncc(Oc2ccc(N3CCNCC3)cc2)n1 [Compound 149, N-Methyl-N-(2-{methyl-[6-(4-piperazin-1-yl-phenoxy)-pyrazin-2-yl]-amino}-ethyl)-acetamide] | 1000 to 10000 nM |
| CCOC(=O)c1ncoc1-c1ccc(Oc2cncc(N(C)CCN(C)C(C)=O)n2)cc1 [Compound 187, 5-[4-(6-{[2-(Acetyl-methyl-amino)-ethyl]-methyl-amino}-pyrazin-2-yloxy)-phenyl]-oxazole-4-carboxylic acid ethyl ester] | 200 to 1000 nM |

| SMILES | IC50 |
| --- | --- |
| CC(=O)N(C)CCN(C)c1cncc(Oc2ccc(-c3cccnc3N)cc2)n1 [Compound 177, N-[2-({6-[4-(2-Amino-pyridin-3-yl)-phenoxy]-pyrazin-2-yl}-methyl-amino)-ethyl]-N-methyl-acetamide] | < 200 nM |
| CC(=O)N(C)CCN(C)c1cncc(Oc2ccc(-c3ccncc3C#N)cc2F)n1 [Compound 228, N-[2-({6-[4-(3-Cyano-pyridin-4-yl)-2-fluoro-phenoxy]-pyrazin-2-yl}-methyl-amino)-ethyl]-N-methyl-acetamide] | < 200 nM |
| CC(=O)N(C)CCN(C)c1cncc(Oc2ccc(N3CCN(c4ccncc4)CC3)cc2)n1 [Compound 132, N-Methyl-N-[2-(methyl-{6-[4-(4-pyridin-4-yl-piperazin-1-yl)-phenoxy]-pyrazin-2-yl}-amino)-ethyl]-acetamide] | < 200 nM |
| CC(=O)N(C)CCN(C)c1cncc(Oc2ccc(-c3ccnnc3)cc2)n1 [Compound 261, N-Methyl-N-(2-{methyl-[6-(4-pyridazin-4-yl-phenoxy)-pyrazin-2-yl]-amino}-ethyl)-acetamide] | < 200 nM |
| CCN(CCNc1cncc(Oc2ccc(F)cc2)n1)C(C)=O [Compound 72, N-Ethyl-N-{2-[6-(4-fluoro-phenoxy)-pyrazin-2-ylamino]-ethyl}-acetamide] | 1000 to 10000 nM |
| CC(=O)N(C)CCN(C)c1cncc(Oc2ccc(F)cc2)n1 [Compound 4, N-(2-{[6-(4-Fluoro-phenoxy)-pyrazin-2-yl]-methyl-amino}-ethyl)-N-methyl-acetamide] | 200 to 1000 nM |
| CC(=O)Nc1cccc(-c2ccc(Oc3cncc(N(C)CCN(C)C(C)=O)n3)cc2)n1 [Compound 171, N-[2-({6-[4-(6-Acetylamino-pyridin-2-yl)-phenoxy]-pyrazin-2-yl}-methyl-amino)-ethyl]-N-methyl-acetamide] | < 200 nM |
| CSc1ccc(Oc2cncc(N(C)CCN(C)C(C)=O)n2)cc1 [Compound 65, N-Methyl-N-(2-{methyl-[6-(4-methyl-sulfanyl-phenoxy)-pyrazin-2-yl]-amino}-ethyl)-acetamide] | < 200 nM |
| COC(=O)N(C)CCN(C)c1cncc(Oc2ccc(OC)cc2)n1 [Compound 78, (2-{[6-(4-Methoxy-phenoxy)-pyrazin-2-yl]-methyl-amino}-ethyl)-methyl-carbamic acid methyl ester] | 1000 to 10000 nM |
| CC(=O)N(C)CCN(C)c1cncc(Oc2ccc(-c3ccnc(N)n3)cc2)n1 [Compound 202, N-[2-({6-[4-(2-Amino-pyrimidin-4-yl)-phenoxy]-pyrazin-2-yl}-methyl-amino)-ethyl]-N-methyl-acetamide] | < 200 nM |
| CC(=O)N(C)CCN(C)c1cncc(Oc2ccc(-c3cnc4ccccc4c3)cc2)n1 [Compound 207, N-Methyl-N-(2-{methyl-[6-(4-quinolin-3-yl-phenoxy)-pyrazin-2-yl]-amino}-ethyl)-acetamide] | 200 to 1000 nM |
| CSc1cccc(Oc2cncc(N(C)CCN(C)C(=O)CF)n2)c1 [Compound 76, 2-Fluoro-N-methyl-N-(2-{methyl-[6-(3-methyl-sulfanyl-phenoxy)-pyrazin-2-yl]-amino}-ethyl)-acetamide] | 200 to 1000 nM |
| CC(=O)N(C)CCN(C)c1cncc(Oc2ccc(-c3cncnc3)cc2)n1 [Compound 209, N-Methyl-N-(2-{methyl-[6-(4-pyrimidin-5-yl-phenoxy)-pyrazin-2-yl]-amino}-ethyl)-acetamide] | < 200 nM |
| CC(=O)N(C)CCN(C)c1cncc(Oc2ccc(F)cc2F)n1 [Compound 105, N-(2-{[6-(2,4-Difluoro-phenoxy)-pyrazin-2-yl]-methyl-amino}-ethyl)-N-methyl-acetamide] | 200 to 1000 nM |
| CSc1cccc(Oc2cncc(N(C)CCN(C)C(C)=O)n2)c1 [Compound 50, N-Methyl-N-(2-{methyl-[6-(3-methyl-sulfanyl-phenoxy)-pyrazin-2-yl]-amino}-ethyl)-acetamide] | 200 to 1000 nM |
| CC(=O)N(C)CCCc1cncc(Oc2ccc(-c3cnc(N)cn3)cc2)c1 [Compound 323, N-(3-{5-[4-(5-Amino-pyrazin-2-yl)-phenoxy]-pyridin-3-yl}-propyl)-N-methyl-acetamide] | 200 to 1000 nM |
| CC(=O)N(C)CCN(C)c1cncc(Oc2ccc3c(c2)C(=O)CC3)n1 [Compound 108, N-Methyl-N-(2-{methyl-[6-(3-oxo-indan-5-yloxy)-pyrazin-2-yl]-amino}-ethyl)-acetamide] | 1000 to 10000 nM |
| CC(=O)N(C)CCN(C)c1cncc(Oc2ccc(-c3ccc(CCNC(=O)CCCCCNC(=O)CCCCC4SCC5NC(=O)NC54)cc3)cc2)n1 (stereo not shown) [Compound 271, 6-[5-(2-Oxo-hexahydro-thieno[3,4-d]imidazol-6-yl)-pentanoyl-amino]-hexanoic acid {2-[4′-(6-{[2-(acetyl-methyl-amino)-ethyl]-methyl-amino}-pyrazin-2-yloxy)-biphenyl-4-yl]-ethyl}-amide] | < 200 nM |

Reference: patent US9493444B2 (Merck Patent GmbH, priority 2012, dated 2016)
